± gives the standard deviation of the averaged measurements.
Columns and labels:
Test in all cases: relative viability vs DMSO control (72 h) (fraction); higher = more viable cells
HS729 = system: HS729
Method in brief: (§1)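 Plates held 72 h at 37 °C and 5% CO2 contained sarcoma cell lines seeded in 384-well format to reach 80–90% confluence, plus 2.5 µl of serially diluted compound added after 24 h. Source plate concentrations ran from 10 mM to 0.0002 mM, with 0.1% DMSO as vehicle and a 5 µM positive control. Percent growth from ATPLite readings, averaged over up to triplicate wells, gave relative viability. Values were rescaled with 1 as full and 0 as none.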

HT1080 = system: HT1080
Method in brief: as §1

SW684 = system: SW684
Method in brief: as §1

KHOS-NP = system: KHOS-NP
Method in brief: as §1

A204 = system: A204
Method in brief: as §1

VA-ES-BJ = system: VA-ES-BJ
Method in brief: as §1

SW982 = system: SW982
Method in brief: as §1

SK-ES-1 = system: SK-ES-1
Method in brief: as §1

SK-LMS-1 = system: SK-LMS-1
Method in brief: as §1

SW872 = system: SW872
Method in brief: as §1

RD-ES = system: RD-ES
Method in brief: as §1

G401 = system: G401
Method in brief: as §1

Which results are given for Cc1cccc(-c2[nH]c(CNc3ccccc3F)nc2-c2ccc3ncnn3c2)n1 [Vactosertib]?
relative viability (HS729; 0.00017 µM): 0.964 ± 0.013; relative viability (HS729; 0.00051 µM): 0.969 ± 0.016; relative viability (HS729; 0.00152 µM): 0.938 ± 0.023; relative viability (HS729; 0.00457 µM): 0.962 ± 0.015; relative viability (HS729; 0.01372 µM): 0.928 ± 0.011; relative viability (HS729; 0.04115 µM): 0.939 ± 0.025; relative viability (HS729; 0.1235 µM): 0.882 ± 0.03; relative viability (HS729; 0.3704 µM): 0.849 ± 0.037; relative viability (HS729; 1.111 µM): 0.787 ± 0.034; relative viability (HS729; 3.333 µM): 0.73 ± 0.027; relative viability (HS729; 10 µM): 0.68 ± 0.04; relative viability (HT1080; 0.00017 µM): 1.02 ± 0.051; relative viability (HT1080; 0.00051 µM): 1 ± 0.033; relative viability (HT1080; 0.00152 µM): 0.967 ± 0.046; relative viability (HT1080; 0.00457 µM): 1.01 ± 0.017; relative viability (HT1080; 0.01372 µM): 1.042 ± 0.01; relative viability (HT1080; 0.04115 µM): 1.01 ± 0.02; relative viability (HT1080; 0.1235 µM): 1.04 ± 0.016; relative viability (HT1080; 0.3704 µM): 1.05 ± 0.072; relative viability (HT1080; 1.111 µM): 1.02 ± 0.012; relative viability (HT1080; 3.333 µM): 1.02 ± 0.058; relative viability (HT1080; 10 µM): 1.01 ± 0.043; relative viability (SW684; 0.00017 µM): 1.15 ± 0.046; relative viability (SW684; 0.00051 µM): 1.08 ± 0.037; relative viability (SW684; 0.00152 µM): 1.08 ± 0.039; relative viability (SW684; 0.00457 µM): 1.1 ± 0.071; relative viability (SW684; 0.01372 µM): 1.07 ± 0.038; relative viability (SW684; 0.04115 µM): 1.06 ± 0.064; relative viability (SW684; 0.1235 µM): 1.07 ± 0.011; relative viability (SW684; 0.3704 µM): 1.04 ± 0.015; relative viability (SW684; 1.111 µM): 1.08 ± 0.026; relative viability (SW684; 3.333 µM): 1.07 ± 0.07; relative viability (SW684; 10 µM): 1.11 ± 0.018; relative viability (KHOS-NP; 0.00017 µM): 1.05 ± 0.045; relative viability (KHOS-NP; 0.00051 µM): 1.05 ± 0.032; relative viability (KHOS-NP; 0.00152 µM): 1.05 ± 0.056; relative viability (KHOS-NP; 0.00457 µM): 1.04 ± 0.047; relative viability (KHOS-NP; 0.01372 µM): 1.03 ± 0.051; relative viability (KHOS-NP; 0.04115 µM): 1.02 ± 0.029; relative viability (KHOS-NP; 0.1235 µM): 1.046 ± 0.0091; relative viability (KHOS-NP; 0.3704 µM): 1.05 ± 0.029; relative viability (KHOS-NP; 1.111 µM): 1.05 ± 0.025; relative viability (KHOS-NP; 3.333 µM): 1.05 ± 0.02; relative viability (KHOS-NP; 10 µM): 1.011 ± 0.0063; relative viability (A204; 0.00017 µM): 1.02 ± 0.052; relative viability (A204; 0.00051 µM): 1.02 ± 0.031; relative viability (A204; 0.00152 µM): 1.02 ± 0.014; relative viability (A204; 0.00457 µM): 1.01 ± 0.031; relative viability (A204; 0.01372 µM): 1.02 ± 0.082; relative viability (A204; 0.04115 µM): 1.03 ± 0.053; relative viability (A204; 0.1235 µM): 0.983 ± 0.048; relative viability (A204; 0.3704 µM): 1.04 ± 0.044; relative viability (A204; 1.111 µM): 1.03 ± 0.088; relative viability (A204; 3.333 µM): 0.953 ± 0.012; relative viability (A204; 10 µM): 0.822 ± 0.08; relative viability (VA-ES-BJ; 0.00017 µM): 1 ± 0.066; relative viability (VA-ES-BJ; 0.00051 µM): 1 ± 0.015; relative viability (VA-ES-BJ; 0.00152 µM): 1.006 ± 0.0055; relative viability (VA-ES-BJ; 0.00457 µM): 1.02 ± 0.015; relative viability (VA-ES-BJ; 0.01372 µM): 1.026 ± 0.0052; relative viability (VA-ES-BJ; 0.04115 µM): 1.04 ± 0.052; relative viability (VA-ES-BJ; 0.1235 µM): 1.038 ± 0.0089; relative viability (VA-ES-BJ; 0.3704 µM): 1.08 ± 0.019; relative viability (VA-ES-BJ; 1.111 µM): 1.11 ± 0.033; relative viability (VA-ES-BJ; 3.333 µM): 1.11 ± 0.029; relative viability (VA-ES-BJ; 10 µM): 1.11 ± 0.018; relative viability (SW982; 0.00017 µM): 0.9904 ± 0.0094; relative viability (SW982; 0.00051 µM): 1.02 ± 0.034; relative viability (SW982; 0.00152 µM): 0.999 ± 0.021; relative viability (SW982; 0.00457 µM): 0.998 ± 0.011; relative viability (SW982; 0.01372 µM): 0.9987 ± 0.0081; relative viability (SW982; 0.04115 µM): 1.03 ± 0.033; relative viability (SW982; 0.1235 µM): 1.01 ± 0.021; relative viability (SW982; 0.3704 µM): 0.984 ± 0.012; relative viability (SW982; 1.111 µM): 1 ± 0.033; relative viability (SW982; 3.333 µM): 1.02 ± 0.023; relative viability (SW982; 10 µM): 0.936 ± 0.034; relative viability (SK-ES-1; 0.00017 µM): 0.986 ± 0.035; relative viability (SK-ES-1; 0.00051 µM): 0.97 ± 0.018; relative viability (SK-ES-1; 0.00152 µM): 0.98 ± 0.029; relative viability (SK-ES-1; 0.00457 µM): 0.974 ± 0.028; relative viability (SK-ES-1; 0.01372 µM): 1.02 ± 0.034; relative viability (SK-ES-1; 0.04115 µM): 1 ± 0.029; relative viability (SK-ES-1; 0.1235 µM): 1.04 ± 0.059; relative viability (SK-ES-1; 0.3704 µM): 1.02 ± 0.024; relative viability (SK-ES-1; 1.111 µM): 0.964 ± 0.08; relative viability (SK-ES-1; 3.333 µM): 1.01 ± 0.013; relative viability (SK-ES-1; 10 µM): 0.898 ± 0.066; relative viability (SK-LMS-1; 0.00017 µM): 0.968 ± 0.026; relative viability (SK-LMS-1; 0.00051 µM): 0.963 ± 0.052; relative viability (SK-LMS-1; 0.00152 µM): 0.981 ± 0.057; relative viability (SK-LMS-1; 0.00457 µM): 0.982 ± 0.063; relative viability (SK-LMS-1; 0.01372 µM): 0.984 ± 0.02; relative viability (SK-LMS-1; 0.04115 µM): 0.978 ± 0.019; relative viability (SK-LMS-1; 0.1235 µM): 0.95 ± 0.016; relative viability (SK-LMS-1; 0.3704 µM): 0.918 ± 0.064; relative viability (SK-LMS-1; 1.111 µM): 0.988 ± 0.032; relative viability (SK-LMS-1; 3.333 µM): 0.992 ± 0.025; relative viability (SK-LMS-1; 10 µM): 0.96 ± 0.019; relative viability (SW872; 0.00017 µM): 0.928 ± 0.04; relative viability (SW872; 0.00051 µM): 0.938 ± 0.055; relative viability (SW872; 0.00152 µM): 0.932 ± 0.068; relative viability (SW872; 0.00457 µM): 0.958 ± 0.047; relative viability (SW872; 0.01372 µM): 0.979 ± 0.027; relative viability (SW872; 0.04115 µM): 0.95 ± 0.049; relative viability (SW872; 0.1235 µM): 0.969 ± 0.024; relative viability (SW872; 0.3704 µM): 0.999 ± 0.043; relative viability (SW872; 1.111 µM): 1.06 ± 0.02; relative viability (SW872; 3.333 µM): 1.062 ± 0.01; relative viability (SW872; 10 µM): 1.02 ± 0.018; relative viability (RD-ES; 0.00017 µM): 0.9791 ± 0.0047; relative viability (RD-ES; 0.00051 µM): 0.97 ± 0.017; relative viability (RD-ES; 0.00152 µM): 0.974 ± 0.021; relative viability (RD-ES; 0.00457 µM): 0.958 ± 0.017; relative viability (RD-ES; 0.01372 µM): 0.97 ± 0.027; relative viability (RD-ES; 0.04115 µM): 0.973 ± 0.041; relative viability (RD-ES; 0.1235 µM): 0.971 ± 0.021; relative viability (RD-ES; 0.3704 µM): 0.964 ± 0.032; relative viability (RD-ES; 1.111 µM): 0.945 ± 0.026; relative viability (RD-ES; 3.333 µM): 0.925 ± 0.033; relative viability (RD-ES; 10 µM): 0.865 ± 0.066; relative viability (G401; 0.00017 µM): 0.942 ± 0.043; relative viability (G401; 0.00051 µM): 0.937 ± 0.038; relative viability (G401; 0.00152 µM): 0.969 ± 0.029; relative viability (G401; 0.00457 µM): 0.984 ± 0.038; relative viability (G401; 0.01372 µM): 0.97 ± 0.065; relative viability (G401; 0.04115 µM): 0.937 ± 0.039; relative viability (G401; 0.1235 µM): 0.9496 ± 0.0058; relative viability (G401; 0.3704 µM): 0.978 ± 0.034; relative viability (G401; 1.111 µM): 0.9638 ± 0.0026; relative viability (G401; 3.333 µM): 0.967 ± 0.058; relative viability (G401; 10 µM): 0.923 ± 0.043
